According to patent US20260027380A1, “TECHNIQUES FOR MAGNETIC NANOCLUSTER-BASED COMBINATION THERAPY” (William Marsh Rice University, priority 2022, published 2026):

Experiments:
[1] = system: MC-38 cells; assay: Lipid peroxidation (MDA level); format: cell-based, murine; settings: without AMF
Experimental: Further, the effect of IONC-AAPH induced heat and free radicals on lipids was quantified by measuring the level of malondialdehyde (MDA). Malondialdehyde (MDA) is one of the final products of lipid peroxidation. MDA is a widely used biomarker of oxidative stress. Accordingly, the extent of lipid peroxidation after IONC-AAPH treatment was measured via MDA levels. FIG. 12 illustrates a quantification of MDA levels in MC-38 cells 2 hours after treatment. It was observed that the MC-38 cells treated with free AAPH, IONC, and IONC-AAPH, respectively, without AMF, as well as cells treated with IONC under AMF had some increase in MDA levels compared with that of control cells, as shown in FIG. 12. The low levels of lipid peroxidation in these groups may have resulted from the free radicals generated from the slow decomposition of AAPH at 37° C., or the IONC induced fenton/fenton-like reaction, or their combination (IONC-AAPH without AMF).
Determination of lipid peroxidation: The lipid peroxidation of MC-38 cells was determined by measuring the production of malondialdehyde (MDA). MC-38 cells cultured in 4-compartment cell culture dishes were treated with 300 μg Fe/mL of IONC-AAPH or IONC at 37° C. or under AMF for 2 h. Two hours post the treatment, the cells were lysed, and the MDA levels were quantified using a fluorescence-based MDA Assay Kit following the manufacturer's instructions.

[2] = system: bone marrow-derived dendritic cells (BMDCs); assay: Dendritic cell maturation, coculture with treated MC-38 cells; format: cell-based, C57BL/6N mice; settings: without AMF
Experimental: Dendritic cells (DCs) are a key type of antigen-presenting cells that play critical roles in initiating and regulating antitumor immune response. To determine if the immunogenic cell death induced by magnetotherapy can activate dendritic cells, bone marrow-derived dendritic cells (BMDCs) were cocultured with IONC-AAPH-treated MC-38 cells, together with the medium containing DAMPs, in a transwell system for 24 h. The maturation of dendritic cells was estimated as the percentage of CD80+CD86+ cells in CD11c+ cells. […] The percentage of mature DCs in IONC and IONC-AAPH groups was 2.1-fold of the blank.
Determination of Dendritic Cell Maturation: The bone marrow-derived dendritic cells (BMDCs) were prepared from the bone marrow of 8-week old C57BL/6N mice according to an established protocol. To determine the stimulatory effect on BMDCs, IONC-AAPH-treated MC-38 cells (together with the medium containing DAMPs) were cocultured with BMDCs for 24 h in a transwell system (pore size=3 μm). BMDCs only (without coculture) were included as the blank groups. The BMDCs were collected, blocked with CD16/CD32 antibody, and stained with PECD11c, FITC-CD80, and APC-CD86. The data were acquired on MA900 Multi-Application Cell Sorter (Sony) and analyzed using FlowJo software (Tree Star).

[3] = system: subcutaneous MC-38 tumor; assay: Tumor killing effect in vivo, subcutaneous MC-38 mouse tumor model; set-up: species or system C57BL/6N mice
Experimental: The antitumor activity of IONC-AAPH in vivo was evaluated with a subcutaneous MC-38 mouse tumor model. The subcutaneous tumor was induced by inoculating MC-38 cells into the right flank of respective C57BL/6N mice. The mice were randomly divided into 6 groups (n=3): (i) saline, (ii) AAPH, (iii) IONC, (iv) IONC-AAPH, (v) IONC+AMF, and (vi) IONC-AAPH+AMF. When the tumor volume reached 150-200 mm^3, the mice were intratumorally injected with saline, AAPH (2 mM), IONC (5 mg Fe/mL), and IONC-AAPH (5 mg Fe/mL), respectively. After injection the mice in IONC+AMF and IONC-AAPH+AMF groups were subjected to AMF for 1 h. The temperature of the tumors injected with IONC or IONC-AAPH increased rapidly and reached above 45° C. within 5 min, as measured by an infrared thermal camera.
After applying AMF, the temperature in the tumor was much higher than in other parts of the body. […]
Tumor killing effect of IONC-AAPH in vivo: All animal work was approved by the Institutional Animal Care and Use Committee (IACUC) of Rice University. […] The direct tumor killing effect of IONC-AAPH treatment was evaluated with subcutaneous tumor-bearing mice. […] The temperature in the tumor was measured using a high-resolution infrared (IR) camera (E95, Teledyne FLIR). The tumor size was measured daily with a digital caliper, and the tumor volume was calculated as follow: volume=length×width^2/2. […]

For CC(C)(N=NC(C)(C)C(=N)N)C(=N)N.Cl.Cl [AAPH, 2,2′-azobis(2-amidinopropane) dihydrochloride], the “MDA level vs control cells” value [1] was “some increase”, the “effect on DC maturation” value [2] was “did not show a noticeable effect” and the “tumor tissue damage (H&E, TUNEL)” value ([3]; without AMF) was “no tumor tissue damage”. The tumor weight ([3]; without applying AMF) was “only slightly reduced the tumor weight”.
